According to ChEMBL document CHEMBL1201862, “PubChem BioAssay data set” (2004):
Where “and” joins values, the source holds several entries; their conditions need not be identical. Equal entries are not always repeated. Calls of active or inactive are those of the source.

Legend:
[1] = molecular target: Heat shock protein HSP 90-alpha (Homo sapiens, UniProt P07900); experiment: Luminescence-based dose response biochemical high throughput screening assay for inhibitors of the Heat Shock Protein 90 (HSP90). [Related pubchem assays: 1831 (Summary AID.), 1846 (Confirmation screen.), 1789 (Primary screen.)]
[2] = molecular target: T1, Replicative DNA helicase DnaB (Mycobacterium tuberculosis, UniProt P9WMR3); experiment: DnaB intein splicing inhibitors, dose response, biochemical, cell-free fluorescence (AID 449749); assay type: functional
T1 sequence (P9WMR3 whole entry): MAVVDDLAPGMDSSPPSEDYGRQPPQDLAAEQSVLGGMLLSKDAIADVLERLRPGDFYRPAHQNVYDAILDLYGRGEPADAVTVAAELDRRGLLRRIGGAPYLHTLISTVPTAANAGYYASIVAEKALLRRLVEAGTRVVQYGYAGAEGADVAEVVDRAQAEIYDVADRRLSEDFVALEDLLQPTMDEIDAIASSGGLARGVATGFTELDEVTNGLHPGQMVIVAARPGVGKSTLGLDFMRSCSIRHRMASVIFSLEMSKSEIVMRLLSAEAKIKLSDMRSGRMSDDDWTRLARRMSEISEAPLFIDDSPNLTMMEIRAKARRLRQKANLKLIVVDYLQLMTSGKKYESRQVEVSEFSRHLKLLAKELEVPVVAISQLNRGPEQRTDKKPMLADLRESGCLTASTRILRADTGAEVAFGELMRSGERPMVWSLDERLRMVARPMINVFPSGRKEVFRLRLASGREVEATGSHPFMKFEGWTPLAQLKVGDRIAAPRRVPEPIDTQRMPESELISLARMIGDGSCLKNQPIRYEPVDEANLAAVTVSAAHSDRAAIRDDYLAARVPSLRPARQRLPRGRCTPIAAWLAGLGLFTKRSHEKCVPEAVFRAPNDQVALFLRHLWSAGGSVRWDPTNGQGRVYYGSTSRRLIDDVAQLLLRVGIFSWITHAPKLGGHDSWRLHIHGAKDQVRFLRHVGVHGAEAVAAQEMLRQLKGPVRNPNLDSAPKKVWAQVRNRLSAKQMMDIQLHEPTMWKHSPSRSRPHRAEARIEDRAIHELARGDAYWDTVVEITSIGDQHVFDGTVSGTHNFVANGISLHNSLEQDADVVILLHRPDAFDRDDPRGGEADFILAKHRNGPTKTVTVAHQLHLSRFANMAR

[3] = molecular target: Peroxisome proliferator-activated receptor gamma/Nuclear receptor corepressor 2 (Homo sapiens, UniProt P37231+Q9Y618); assay type: functional
[4] = molecular target: T2, Dual specificity protein phosphatase 6 (Rattus norvegicus, UniProt Q64346); assay type: functional;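 further: confirmatory in vitro dose-response testing of MKP-3 inhibition; recombinant His-tagged MKP-3 made in E. coli BL21 with OMFP substrate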
T2 sequence (Q64346 whole entry): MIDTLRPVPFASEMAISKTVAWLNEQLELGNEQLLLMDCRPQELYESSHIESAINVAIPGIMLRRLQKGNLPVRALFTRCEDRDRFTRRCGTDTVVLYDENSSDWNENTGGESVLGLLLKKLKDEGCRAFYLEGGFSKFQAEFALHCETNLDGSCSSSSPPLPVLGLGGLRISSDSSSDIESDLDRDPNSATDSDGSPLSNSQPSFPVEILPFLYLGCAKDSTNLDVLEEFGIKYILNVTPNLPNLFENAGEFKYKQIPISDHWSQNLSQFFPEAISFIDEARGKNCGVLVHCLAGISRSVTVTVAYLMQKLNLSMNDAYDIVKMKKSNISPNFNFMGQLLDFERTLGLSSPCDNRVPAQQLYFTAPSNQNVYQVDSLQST

[5] = molecular target: 26S proteasome non-ATPase regulatory subunit 14 (Homo sapiens, UniProt O00487); experiment: inhibition of proteasome subunit RPN11 – biochemical, fluorescence polarization, uHTS hits, confirmation (AID 602368); assay type: functional
[6] = molecular target: Dual specificity protein phosphatase 3 (Homo sapiens, UniProt P51452); experiment: SAR VHR1 Fluorescent Assay for In Vitro dose response studies Set 2. [Related pubchem assays (depositor defined):AID1654, AID1661, AID1878]; assay type: functional
Keap1/Nrf2 = Keap1/Nrf2 (Homo sapiens, UniProt Q14145); experiment: disruptors of Keap1 binding to Nrf2 peptide – biochemical, fluorescence polarization, cherry-picked samples, dose response (AID 588683)
[7] = alpha-synuclein stem-loop luciferase translation blockers – H4 neuroglioma cells, luminescence, confirmation (AID 1988); assay type: functional, cell-based
[8] = Luminescence-based dose response cell-based high throughput screening assay for cytotoxic compounds using the IEC-6 intestinal epithelial cell line. [Related pubchem assays: 1858 (Summary AID.), 1825 (Counterscreen.), 1907 (Confirmation screen.)]; assay type: functional
Streptokinase A = molecular target: T3, Streptokinase A (Streptococcus pyogenes serotype M1, UniProt P10520); experiment: viability-normalized secreted streptokinase activity reduction – plasminogen activation absorbance, OD405, dose response (AID 1914); assay type: functional, Streptococcus pyogenes M1 GAS;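 further: secreted streptokinase activity via plasminogen activation per viability signal from cell pellet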
T3 sequence (P10520 whole entry): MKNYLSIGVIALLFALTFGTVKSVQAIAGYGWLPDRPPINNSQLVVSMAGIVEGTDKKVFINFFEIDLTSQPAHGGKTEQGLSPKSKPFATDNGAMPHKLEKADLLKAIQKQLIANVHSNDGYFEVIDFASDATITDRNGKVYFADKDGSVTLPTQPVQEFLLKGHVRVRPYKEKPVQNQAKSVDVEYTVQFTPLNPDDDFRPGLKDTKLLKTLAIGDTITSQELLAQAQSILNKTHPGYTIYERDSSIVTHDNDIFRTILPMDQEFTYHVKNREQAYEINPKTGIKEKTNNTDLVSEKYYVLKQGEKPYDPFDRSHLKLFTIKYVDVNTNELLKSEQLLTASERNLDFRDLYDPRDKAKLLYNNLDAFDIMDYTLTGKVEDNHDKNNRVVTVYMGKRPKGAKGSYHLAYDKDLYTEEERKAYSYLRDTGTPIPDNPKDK

[9] = molecular target: Serine/threonine-protein phosphatase (Homo sapiens, UniProt Q9BPW0); experiment: inhibition of protein phosphatase 5 activity – biochemical, fluorescence, dose response (AID 2395)
[10] = molecular target: Serine/threonine-protein phosphatase PP1-alpha catalytic subunit (Homo sapiens, UniProt P62136); experiment: inhibition of protein phosphatase 1 activity – biochemical, fluorescence, dose response (AID 2394)
Chain of Serine/threonine-protein phosphatase PP1-alpha catalytic subunit (P62136 whole entry): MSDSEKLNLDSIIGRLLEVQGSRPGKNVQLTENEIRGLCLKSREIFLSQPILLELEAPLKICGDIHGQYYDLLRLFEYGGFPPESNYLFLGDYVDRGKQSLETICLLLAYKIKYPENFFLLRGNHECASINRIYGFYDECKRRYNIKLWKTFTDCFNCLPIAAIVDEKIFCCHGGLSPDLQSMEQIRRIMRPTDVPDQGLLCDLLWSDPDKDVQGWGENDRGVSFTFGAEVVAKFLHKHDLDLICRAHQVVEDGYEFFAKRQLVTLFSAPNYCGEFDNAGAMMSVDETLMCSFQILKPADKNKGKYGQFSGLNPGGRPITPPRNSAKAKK

Chain of Dual specificity protein phosphatase 3 (P51452 whole entry): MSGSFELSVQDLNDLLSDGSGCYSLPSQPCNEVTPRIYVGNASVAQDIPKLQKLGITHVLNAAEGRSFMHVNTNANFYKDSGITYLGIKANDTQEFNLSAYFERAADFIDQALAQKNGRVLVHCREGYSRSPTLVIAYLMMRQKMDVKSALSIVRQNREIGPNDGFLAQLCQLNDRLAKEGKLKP
Chain of Serine/threonine-protein phosphatase (Q9BPW0 whole entry): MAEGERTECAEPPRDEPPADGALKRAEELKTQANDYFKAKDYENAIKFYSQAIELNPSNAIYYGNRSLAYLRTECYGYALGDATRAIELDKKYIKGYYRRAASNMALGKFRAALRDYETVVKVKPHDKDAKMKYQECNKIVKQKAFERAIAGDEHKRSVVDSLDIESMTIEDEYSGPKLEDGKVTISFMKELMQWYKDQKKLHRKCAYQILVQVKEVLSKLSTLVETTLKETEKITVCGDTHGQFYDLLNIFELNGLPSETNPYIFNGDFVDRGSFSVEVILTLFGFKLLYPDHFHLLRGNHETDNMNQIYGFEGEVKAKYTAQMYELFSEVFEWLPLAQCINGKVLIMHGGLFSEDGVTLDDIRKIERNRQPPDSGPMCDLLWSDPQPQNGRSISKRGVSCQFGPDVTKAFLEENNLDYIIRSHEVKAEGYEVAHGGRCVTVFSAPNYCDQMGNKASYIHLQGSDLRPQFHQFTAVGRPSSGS
Chain of 26S proteasome non-ATPase regulatory subunit 14 (O00487 whole entry): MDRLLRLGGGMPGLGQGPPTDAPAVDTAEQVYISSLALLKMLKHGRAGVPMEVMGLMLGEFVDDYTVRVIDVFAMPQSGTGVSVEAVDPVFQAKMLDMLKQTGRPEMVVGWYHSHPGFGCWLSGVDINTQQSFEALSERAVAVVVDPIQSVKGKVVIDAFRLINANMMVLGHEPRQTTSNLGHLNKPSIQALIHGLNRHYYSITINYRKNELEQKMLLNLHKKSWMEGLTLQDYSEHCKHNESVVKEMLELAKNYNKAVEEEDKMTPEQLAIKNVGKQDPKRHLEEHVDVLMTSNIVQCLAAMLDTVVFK
Chain of Peroxisome proliferator-activated receptor gamma/Nuclear receptor corepressor 2 (P37231 whole entry): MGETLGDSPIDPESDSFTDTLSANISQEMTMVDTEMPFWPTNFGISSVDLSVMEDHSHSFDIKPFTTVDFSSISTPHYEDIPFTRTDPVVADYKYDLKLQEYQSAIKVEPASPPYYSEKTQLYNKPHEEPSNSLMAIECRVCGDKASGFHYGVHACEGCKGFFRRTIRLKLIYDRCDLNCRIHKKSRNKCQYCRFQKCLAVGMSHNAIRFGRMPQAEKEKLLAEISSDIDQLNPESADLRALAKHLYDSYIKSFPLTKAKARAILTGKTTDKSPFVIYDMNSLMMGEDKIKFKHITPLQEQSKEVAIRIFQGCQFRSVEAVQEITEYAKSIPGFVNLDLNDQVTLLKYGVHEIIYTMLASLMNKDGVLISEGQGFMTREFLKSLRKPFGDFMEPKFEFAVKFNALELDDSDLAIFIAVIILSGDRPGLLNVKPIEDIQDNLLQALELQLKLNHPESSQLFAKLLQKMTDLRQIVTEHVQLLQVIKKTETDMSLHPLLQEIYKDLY
Chain of Peroxisome proliferator-activated receptor gamma/Nuclear receptor corepressor 2 (Q9Y618 whole entry): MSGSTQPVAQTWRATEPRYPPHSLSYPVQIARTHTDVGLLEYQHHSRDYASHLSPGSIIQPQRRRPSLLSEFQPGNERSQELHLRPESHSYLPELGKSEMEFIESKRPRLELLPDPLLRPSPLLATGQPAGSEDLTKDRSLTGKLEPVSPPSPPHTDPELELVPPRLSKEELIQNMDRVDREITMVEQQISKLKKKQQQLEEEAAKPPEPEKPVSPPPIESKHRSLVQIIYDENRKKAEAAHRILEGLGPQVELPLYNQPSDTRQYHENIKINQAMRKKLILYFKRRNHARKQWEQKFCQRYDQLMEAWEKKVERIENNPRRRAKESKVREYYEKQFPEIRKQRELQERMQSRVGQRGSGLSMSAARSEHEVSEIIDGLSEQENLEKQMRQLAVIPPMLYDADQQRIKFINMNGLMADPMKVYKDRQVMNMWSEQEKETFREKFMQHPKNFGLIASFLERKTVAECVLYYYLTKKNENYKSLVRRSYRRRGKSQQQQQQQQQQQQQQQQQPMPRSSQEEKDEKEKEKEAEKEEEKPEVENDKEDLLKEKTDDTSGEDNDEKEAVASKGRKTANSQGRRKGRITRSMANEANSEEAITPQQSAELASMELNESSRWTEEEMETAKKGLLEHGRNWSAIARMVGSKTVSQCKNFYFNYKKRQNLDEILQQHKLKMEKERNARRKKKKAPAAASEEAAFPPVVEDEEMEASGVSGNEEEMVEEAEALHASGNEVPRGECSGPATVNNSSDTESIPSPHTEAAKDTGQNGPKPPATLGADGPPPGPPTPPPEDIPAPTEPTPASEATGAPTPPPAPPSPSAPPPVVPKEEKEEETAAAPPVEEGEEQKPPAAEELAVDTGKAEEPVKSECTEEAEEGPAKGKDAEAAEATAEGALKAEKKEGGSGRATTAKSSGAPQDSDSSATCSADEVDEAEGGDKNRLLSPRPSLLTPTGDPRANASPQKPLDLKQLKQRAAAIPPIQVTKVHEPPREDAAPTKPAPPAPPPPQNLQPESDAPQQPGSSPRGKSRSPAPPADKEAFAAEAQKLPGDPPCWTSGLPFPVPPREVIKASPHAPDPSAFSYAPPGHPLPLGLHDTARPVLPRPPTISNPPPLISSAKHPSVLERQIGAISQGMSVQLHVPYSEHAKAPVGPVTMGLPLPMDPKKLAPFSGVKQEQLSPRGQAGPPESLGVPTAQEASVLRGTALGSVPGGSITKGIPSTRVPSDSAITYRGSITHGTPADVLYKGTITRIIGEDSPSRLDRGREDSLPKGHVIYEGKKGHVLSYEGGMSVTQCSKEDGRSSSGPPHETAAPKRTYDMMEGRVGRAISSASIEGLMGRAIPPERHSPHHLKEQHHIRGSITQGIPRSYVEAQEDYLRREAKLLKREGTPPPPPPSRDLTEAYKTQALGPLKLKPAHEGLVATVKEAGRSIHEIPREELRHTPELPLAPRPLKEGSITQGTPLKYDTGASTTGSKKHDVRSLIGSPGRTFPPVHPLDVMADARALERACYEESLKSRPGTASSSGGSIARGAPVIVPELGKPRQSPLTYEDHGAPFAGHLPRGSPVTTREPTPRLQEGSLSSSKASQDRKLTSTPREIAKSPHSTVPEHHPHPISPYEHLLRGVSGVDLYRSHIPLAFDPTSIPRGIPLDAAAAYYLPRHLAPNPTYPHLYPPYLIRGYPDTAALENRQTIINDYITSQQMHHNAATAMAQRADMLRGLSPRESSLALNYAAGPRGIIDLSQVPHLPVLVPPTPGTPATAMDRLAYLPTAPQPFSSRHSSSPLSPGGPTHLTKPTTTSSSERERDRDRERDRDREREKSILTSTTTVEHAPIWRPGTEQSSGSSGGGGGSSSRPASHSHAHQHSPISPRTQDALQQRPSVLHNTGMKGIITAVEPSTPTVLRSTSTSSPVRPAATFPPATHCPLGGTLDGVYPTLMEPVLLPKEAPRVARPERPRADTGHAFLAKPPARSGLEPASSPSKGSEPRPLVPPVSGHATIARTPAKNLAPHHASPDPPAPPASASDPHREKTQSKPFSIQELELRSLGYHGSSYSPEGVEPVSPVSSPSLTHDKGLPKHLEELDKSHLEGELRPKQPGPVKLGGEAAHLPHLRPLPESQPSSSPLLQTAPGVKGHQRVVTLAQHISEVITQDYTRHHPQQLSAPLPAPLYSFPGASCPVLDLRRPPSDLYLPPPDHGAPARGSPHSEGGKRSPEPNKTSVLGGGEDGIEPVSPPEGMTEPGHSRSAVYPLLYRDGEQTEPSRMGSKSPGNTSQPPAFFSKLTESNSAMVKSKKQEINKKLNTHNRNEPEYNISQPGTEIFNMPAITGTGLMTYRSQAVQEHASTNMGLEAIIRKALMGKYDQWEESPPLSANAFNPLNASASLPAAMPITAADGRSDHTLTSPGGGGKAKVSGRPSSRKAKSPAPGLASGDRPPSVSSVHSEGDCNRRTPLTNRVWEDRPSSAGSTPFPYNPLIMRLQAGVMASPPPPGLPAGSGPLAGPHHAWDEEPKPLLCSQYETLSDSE

## COC(=O)c1cc(C)nc2c1C(=O)C(=O)C=C2N1CCOCC1
[1]
  IC50: 3.21 µM (active)
[2]
  AC50: 1.36 µM (active)
[3]
  IC50: > 39.8 µM (not active)

## NS(=O)(=O)c1cc(C(=O)NC2CCSc3ccccc32)ccc1Cl (configuration not stated)
[4]
  IC50: 2.96 µM (active) and > 100 µM (inactive)
[5]
  IC50: 0.763 µM (active)
[6]
  IC50: > 100 µM (inactive) and 82.8 nM (active)
Keap1/Nrf2
  AC50: > 52 µM (inactive)

## O=C1c2ccccc2C(=O)c2[nH]c(O)nc21
[7]
  EC50: 4.26 µM (active)
[8]
  IC50: 1.81 µM (active)
Streptokinase A
  EC50: 130 µM (active)

## CCOC(=O)C1=C(C)OC2(O)c3ccccc3C(=O)C12O (configuration not stated)
[9]
  IC50: > 67 µM (not active)
[10]
  IC50: 49 µM (not active)
